From publication PMC3648604 (Antiviral research, 2013)

Target: NA activity of the H5N1 influenza viruses (Influenza A virus (H5N1), UniProt Q6DPL2)
Assay type: biochemical, human and avian HP H5N1 influenza viruses

Chain of NA activity of the H5N1 influenza viruses (Q6DPL2 whole entry, looked up): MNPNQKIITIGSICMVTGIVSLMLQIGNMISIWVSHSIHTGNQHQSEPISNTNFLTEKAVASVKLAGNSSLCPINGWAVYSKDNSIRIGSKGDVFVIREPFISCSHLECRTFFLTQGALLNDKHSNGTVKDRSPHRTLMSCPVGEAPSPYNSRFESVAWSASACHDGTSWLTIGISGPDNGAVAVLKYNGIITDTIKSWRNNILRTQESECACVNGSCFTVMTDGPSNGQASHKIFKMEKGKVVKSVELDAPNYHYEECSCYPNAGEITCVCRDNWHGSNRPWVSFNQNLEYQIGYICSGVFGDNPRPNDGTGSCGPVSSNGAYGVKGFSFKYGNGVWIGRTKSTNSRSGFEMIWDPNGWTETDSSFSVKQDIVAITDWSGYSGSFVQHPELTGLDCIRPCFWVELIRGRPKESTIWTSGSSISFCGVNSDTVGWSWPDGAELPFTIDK

CC(=O)N[C@H]1[C@H]([C@H](O)[C@H](O)CO)OC(C(=O)O)=C[C@@H]1N=C(N)N [Zanamivir, 4-guanidino-Neu5Ac2en]
susceptibility in phenotypic fluorescence-based assay: fully susceptible
